In ChEMBL document CHEMBL2034904, “A new series of N5 derivatives of the 1,1,5-trimethyl furo[3,4-c]pyridine-3,4-dione (cerpegin) selectively inhibits the post-acid activity of mammalian 20S proteasomes” (Bioorg Med Chem Lett, 2012):
Activity calls are given as the source filed them. No cut-off for these calls is given here.

Assays:
[1] = species: Oryctolagus cuniculus; assay: Inhibition of chymotrypsin-like activity of 20S proteasome catalytic core from rabbit erythrocytes using Suc-LLVY-AMC as substrate at 100 uM preincubated for 15 mins prior to substrate addition measured after 45 mins
[2] = species: Homo sapiens; assay: Inhibition of calpain-1 from human erythrocytes using […] as substrate
[3] = species: Oryctolagus cuniculus; assay: Inhibition of trypsin-like activity of 20S proteasome catalytic core from rabbit erythrocytes using Boc-LRR-AMC as substrate at 100 uM preincubated for 15 mins prior to substrate addition measured after 45 mins
[4] = biological target: Cathepsin B (Homo sapiens) (UniProt P07858); assay: Inhibition of cathepsin B from human hepatocytes using […] as substrate; details: Hepatocyte
[5] = species: Oryctolagus cuniculus; assay: Inhibition of caspase-like activity of 20S proteasome catalytic core from rabbit erythrocytes using Z-LLE-NA as substrate at 100 uM preincubated for 15 mins prior to substrate addition measured after 45 mins
[6] = Inhibition of caspase-like activity of 20S proteasome catalytic core from rabbit erythrocytes using Z-LLE-NA as substrate preincubated for 15 mins prior to substrate addition measured after 45 mins; design: species or system Oryctolagus cuniculus
[7] = species: Homo sapiens; assay: Inhibition of trypsin-like activity of 20S proteasome catalytic core from human erythrocytes using Boc-LRR-AMC as substrate at 100 uM preincubated for 15 mins prior to substrate addition measured after 45 mins
[8] = species: Homo sapiens; assay: (§1) Inhibition of chymotrypsin-like activity of 20S proteasome catalytic core from human erythrocytes using Suc-LLVY-AMC as substrate preincubated for 15 mins prior to substrate addition measured after 45 mins
[9] = Inhibition of caspase-like activity of 20S proteasome catalytic core from human erythrocytes using Z-LLE-NA as substrate preincubated for 15 mins prior to substrate addition measured after 45 mins
[10] = Inhibition of chymotrypsin-like activity of 20S proteasome catalytic core from rabbit erythrocytes using Suc-LLVY-AMC as substrate preincubated for 15 mins prior to substrate addition measured after 45 mins; design: species or system Oryctolagus cuniculus
[11] = Inhibition of trypsin-like activity of 20S proteasome catalytic core from rabbit erythrocytes using Boc-LRR-AMC as substrate preincubated for 15 mins prior to substrate addition measured after 45 mins; design: species or system Oryctolagus cuniculus
[12] = species: Oryctolagus cuniculus; assay: Irreversible inhibition of rabbit 20S proteasome chymotrypsin-like activity using […] as substrate at 10 to 50 uM from 5 to 60 mins
[13] = as §1
[14] = (§2) Inhibition of trypsin-like activity of 20S proteasome catalytic core from human erythrocytes using Boc-LRR-AMC as substrate preincubated for 15 mins prior to substrate addition measured after 45 mins
[15] = species: Oryctolagus cuniculus; assay: Inhibition of rabbit 20S proteasome chymotrypsin-like activity using […] as substrate at 10 to 50 uM; details: TDE = time-dependent effect
[16] = species: Homo sapiens; assay: as §2

inhibition [1]	inhibition [2]	inhibition [3]	inhibition [4]	IC50 [6]	Structure (SMILES)	also measured
38.2%	inactive	inactive	inactive	–	CC1(C)OC(=O)c2c1ccn(CCc1ccc(O)cc1)c2=O	inhibition [5]: 21.7%
inactive	inactive	40%	inactive	4.9 µM	CC1(C)OC(=O)c2c1ccn(CCc1ccccc1Cl)c2=O	–
inactive	inactive	22.6%	inactive	48.7 µM	CC1(C)OC(=O)c2c1ccn(CCc1ccccc1)c2=O	inhibition [7]: 25.3%; inhibition [8]: inactive; IC50 [9]: 45.7 µM
inactive	inactive	inactive	inactive	5.9 µM	C=CCOCC(O)Cn1ccc2c(c1=O)C(=O)OC2(C)C (stereo unspecified)	–
inactive	inactive	42.5%	inactive	–	CC1(C)OC(=O)c2c1ccn(CC(O)CN1CCOCC1)c2=O (stereo unspecified)	inhibition [5]: inactive
inactive	inactive	inactive	inactive	6.1 µM	CC1(C)OC(=O)c2c1ccn(CC(O)CN1CCCCC1)c2=O (stereo unspecified)	–
inactive	inactive	51.5%	inactive	5.2 µM	CC1(C)OC(=O)c2c1ccn(CC(O)c1ccccc1)c2=O (stereo unspecified)	–
inactive	inactive	inactive	inactive	29.3 µM	CC1(C)OC(=O)c2c1ccn(Cc1ccc(Cl)cc1Cl)c2=O	–
inactive	inactive	inactive	inactive	–	CC1(C)OC(=O)c2c1ccn(CCc1c[nH]c3ccccc13)c2=O	inhibition [5]: 23.7%
inactive	inactive	inactive	inactive	8.4 µM	CC1(C)OC(=O)c2c1ccn(Cc1cccc(C(F)(F)F)c1)c2=O	–
inactive	inactive	inactive	inactive	11.4 µM	CC1(C)OC(=O)c2c1ccn(CCCN1CCCC1)c2=O	–
21%	inactive	20%	inactive	7.1 µM	CC1(C)OC(=O)c2c1ccn(Cc1ccc(Cl)cc1)c2=O	–
inactive	inactive	inactive	inactive	71.9 µM	CC1(C)OC(=O)c2c1ccn(CCCN1CCOCC1)c2=O	–
inactive	inactive	33.3%	inactive	39.7 µM	CC1(C)OC(=O)c2c1ccn(CC(O)COc1ccccc1)c2=O (stereo unspecified)	–
inactive	inactive	inactive	inactive	5.5 µM	CC1(C)OC(=O)c2c1ccn(CCc1ccc(S(N)(=O)=O)cc1)c2=O	–
–	inactive	–	inactive	10.7 µM	CC1(C)OC(=O)c2c1ccn(NC(N)=S)c2=O	IC50 [10]: 8 µM; IC50 [11]: 10.1 µM; inhibition [12]: Active; IC50 [13]: 8.4 µM; IC50 [9]: 9.7 µM; IC50 [14]: 10.2 µM; inhibition [15]: tde
inactive	inactive	–	inactive	6.1 µM	CCN(CC)CC(O)Cn1ccc2c(c1=O)C(=O)OC2(C)C (stereo unspecified)	IC50 [11]: 90 µM
inactive	inactive	inactive	inactive	–	COc1ccc(CCn2ccc3c(c2=O)C(=O)OC3(C)C)cc1	inhibition [5]: inactive
inactive	inactive	inactive	inactive	69.8 µM	CC1(C)OC(=O)c2c1ccn(CC(O)CN1CCN(Cc3ccccc3)CC1)c2=O (stereo unspecified)	–
inactive	inactive	inactive	inactive	76.8 µM	CC1(C)OC(=O)c2c1ccn(CCCn1ccnc1)c2=O	–
inactive	inactive	inactive	inactive	4.9 µM	CC1(C)OC(=O)c2c1ccn(CC(O)CO)c2=O (stereo unspecified)	–
inactive	inactive	inactive	inactive	12.1 µM	CC1(C)OC(=O)c2c1ccn(CCO)c2=O	–
inactive	inactive	inactive	inactive	39.8 µM	CC1(C)OC(=O)c2c1ccn(CCc1ccc(F)cc1)c2=O	–
inactive	inactive	inactive	inactive	7 µM	CC1(C)OC(=O)c2c1ccn(Cc1ccncc1)c2=O	inhibition [8]: inactive; IC50 [9]: 7.9 µM; inhibition [16]: inactive
inactive	inactive	inactive	inactive	13.3 µM	CCOC(=O)Cn1ccc2c(c1=O)C(=O)OC2(C)C	–
inactive	inactive	inactive	inactive	10.4 µM	Cn1ccc2c(c1=O)C(=O)OC2(C)C [CERPEGIN]	–
inactive	inactive	50%	inactive	20.1 µM	CC1(C)OC(=O)c2c1ccn(CCc1ccc(Cl)cc1)c2=O	–
inactive	inactive	inactive	inactive	–	CN(C)CCn1ccc2c(c1=O)C(=O)OC2(C)C	inhibition [5]: 50%
inactive	inactive	inactive	inactive	–	CC1(C)OC(=O)c2c1ccn(CCNc1ccc([N+](=O)[O-])cn1)c2=O	inhibition [5]: 23.4%
